{
  "source": "patent US20250262228A1",
  "about": "“TREATMENT OF SPASTICITY AND PAIN IN RENALLY-IMPAIRED PATIENTS” (Jazz Pharmaceuticals Research UK Limited., priority 2022, published 2025)",
  "key": {"[1]": {"conditions": "for Cmax, Geometric LS Mean Ratio (Severe RI/Normal), Estimate / AUClast, Geometric LS Mean Ratio (Severe RI/Normal), Estimate: plasma, mixed model; for Cmax, Geometric LS Mean Ratio (Severe RI/Normal), Estimate / AUClast, Geometric LS Mean Ratio (Severe RI/Normal), Estimate / increase in AUClast in severe renal impairment versus normal renal function / AUC0-tlast Fold Change from Normal / increase in AUC in the renally impaired group compared to the normal group / mean plasma concentrations over time in renally impaired participants versus normal: 4 sprays; for AUClast, Geometric LS Mean Ratio (Severe RI/Normal), Estimate: significant when ratio >=2.0 plus 90% CI outside 0.5-2.0; for elimination in patients with renal impairment: renally impaired vs normal, after oromucosal spray; for increase in AUClast in severe renal impairment versus normal renal function / increase in AUC in the renally impaired group compared to the normal group: severe renal impairment vs normal, oromucosal spray; for AUC0-tlast Fold Change from Normal / mean plasma concentrations over time in renally impaired participants versus normal: severe renal impairment; for mean plasma concentrations over time in renally impaired participants versus normal: FIGS. 1-4", "source_text": "Rationale: To date, no studies of administering the disclosed oromucosal spray in patients with varying degrees of renal impairment have been conducted. The present trial investigated the effects of the oromucosal spray in subjects with severe renal impairment. The principal aim of this trial was to assess the pharmacokinetic (PK) parameters following oromucosal administration in patients with severe renal impairment and individually matched healthy participants (i.e., otherwise identical patients with normal renal function).\nPrimary Objectives: Evaluated and compared the PK parameters of the oromucosal spray in participants with severe renal impairment or End-Stage Renal Disease (ESRD) to the PK profile in matched participants with normal renal function.\nPrimary Endpoints: The PK parameters, derived from the plasma concentration-time (Cmax) and area under the concentration-time curve calculated to the last concentration at time t (AUC0-t), or 48 hours (AUC0-48), for THC, CBD, and metabolites of THC and CBD (e.g., 11-OH-THC and 7-COOH-CBD).\nThe 4 sprays administered a total of 10.8 mg THC and 10 mg CBD. The duration of the trial was approximately 45 days, which included a screening period (up to 4 weeks), a treatment period (48 hours) and a safety follow-up period (2 weeks). Screening was performed within 28 to 2 days before dosing, and the assessments included measurement of serum creatinine to assess the eGFR as determined by the modification of diet in renal disease formula (MDRD) to verify initial participant eligibility for trial participation. Participants entered the screening period (Day −28 to −1). From Day −1, screened participants who continued to meet eligibility criteria were admitted to the clinical research facility and placed under observation continually from dosing until 48 hours postdose. […] On Day 1, participants received 4 sprays of the oromucosal spray.\nFormulation Mode of Administration, Dose, and Regimen: The oromucosal spray was formulated as a mixture of THC and CBD extracts derived from Cannabis sativa L. The formulation contains THC and CBD as the most abundant cannabinoid constituents and also contains minor constituents including related cannabinoids and non-cannabinoid plant components, such as terpenes, sterols, and triglycerides. The spray contains 27 mg/mL of THC and 25 mg/mL of CBD dissolved in the excipients (e.g., ethanol and propylene glycol). Each spray delivers 100 μL containing 2.7 mg of THC and 2.5 mg of CBD.\nProcedures: PK samplings were taken as close as to the nominal time point. Participants fasted overnight for at least 10 hours prior to the administration and for at least 4 hours thereafter. Standardized meals and beverages were provided at approximately 4 hours and 9 hours after dosing. With the exception of the water administered at the time of dosing, water was not permitted from 1 hour before until 1 hour after dosing. […] Cannabis or use of anticonvulsants, antidepressants, antipsychotic and anxiolytic medications were not allowed throughout the trial. Alcohol, nicotine products, and consuming food or beverages containing methylxanthines (caffeinated food or beverages) were prohibited for 24 hours prior to each visit and throughout the inpatient period."}, "[2]": {"conditions": "renally impaired patients administered highly purified CBD; cited from earlier work"}},
  "data": [
    {"smiles": "C=C(C)[C@@H]1CCC(C(=O)O)=C[C@H]1c1c(O)cc(CCCCC)cc1O", "note": "[7-COOH-CBD]", "values": [
      {"measurement": "Cmax, Geometric LS Mean Ratio (Severe RI/Normal), Estimate", "setting": "[1]", "value": 1.4},
      {"measurement": "AUClast, Geometric LS Mean Ratio (Severe RI/Normal), Estimate", "setting": "[1]", "value": 1.92},
      {"measurement": "elimination in patients with renal impairment", "setting": "[1]", "value": "relatively unchanged"},
      {"measurement": "increase in AUClast in severe renal impairment versus normal renal function", "setting": "[1]", "value": "< 2", "unit": "fold"},
      {"measurement": "AUC0-tlast Fold Change from Normal", "setting": "[1]", "value": 1.92, "unit": "fold"}
    ]},
    {"smiles": "C=C(C)[C@@H]1CCC(CO)=C[C@H]1c1c(O)cc(CCCCC)cc1O", "note": "[7-OH-CBD]", "values": [
      {"measurement": "Cmax, Geometric LS Mean Ratio (Severe RI/Normal), Estimate", "setting": "[1]", "value": 1.89},
      {"measurement": "AUClast, Geometric LS Mean Ratio (Severe RI/Normal), Estimate", "setting": "[1]", "value": 4.59},
      {"measurement": "elimination in patients with renal impairment", "setting": "[1]", "value": "clinically significant prolonged elimination"},
      {"measurement": "increase in AUC in the renally impaired group compared to the normal group", "setting": "[1]", "value": 4.59, "unit": "fold"},
      {"measurement": "increase in AUClast in severe renal impairment versus normal renal function", "setting": "[1]", "value": "approximately 3 fold"},
      {"measurement": "AUC0-tlast Fold Change from Normal", "setting": "[1]", "value": 4.59, "unit": "fold"}
    ]},
    {"smiles": "CCCCCc1cc(O)c2c(c1)OC(C)(C)[C@@H]1CCC(C(=O)O)=C[C@@H]21", "note": "[11-COOH-THC]", "values": [
      {"measurement": "Cmax, Geometric LS Mean Ratio (Severe RI/Normal), Estimate", "setting": "[1]", "value": 1.15},
      {"measurement": "AUClast, Geometric LS Mean Ratio (Severe RI/Normal), Estimate", "setting": "[1]", "value": 1.26},
      {"measurement": "elimination in patients with renal impairment", "setting": "[1]", "value": "relatively unchanged"},
      {"measurement": "AUC0-tlast Fold Change from Normal", "setting": "[1]", "value": 1.26, "unit": "fold"}
    ]},
    {"smiles": "CCCCCc1cc(O)c2c(c1)OC(C)(C)[C@@H]1CCC(CO)=C[C@@H]21", "note": "[11-OH-THC]", "values": [
      {"measurement": "mean plasma concentrations over time in renally impaired participants versus normal", "setting": "[1]", "value": "Much higher"},
      {"measurement": "Cmax, Geometric LS Mean Ratio (Severe RI/Normal), Estimate", "setting": "[1]", "value": 2.13},
      {"measurement": "AUClast, Geometric LS Mean Ratio (Severe RI/Normal), Estimate", "setting": "[1]", "value": 3.18},
      {"measurement": "elimination in patients with renal impairment", "setting": "[1]", "value": "clinically significant prolonged elimination"},
      {"measurement": "increase in AUC in the renally impaired group compared to the normal group", "setting": "[1]", "value": 3.18, "unit": "fold"},
      {"measurement": "AUC0-tlast Fold Change from Normal", "setting": "[1]", "value": 3.18, "unit": "fold"}
    ]},
    {"smiles": "C=C(C)[C@@H]1CCC(C)=C[C@H]1c1c(O)cc(CCCCC)cc1O", "note": "[CBD, Cannabidiol, reference compound]", "values": [
      {"measurement": "mean plasma concentrations over time in renally impaired participants versus normal", "setting": "[1]", "value": "elevated"},
      {"measurement": "Cmax, Geometric LS Mean Ratio (Severe RI/Normal), Estimate", "setting": "[1]", "value": 1.11},
      {"measurement": "AUClast, Geometric LS Mean Ratio (Severe RI/Normal), Estimate", "setting": "[1]", "value": 1.95},
      {"measurement": "elimination in patients with renal impairment", "setting": "[1]", "value": "relatively unchanged"},
      {"measurement": "AUC0-tlast Fold Change from Normal", "setting": "[1]", "value": 1.95, "unit": "fold"}
    ]},
    {"smiles": "CCCCCc1cc(O)c2c(c1)OC(C)(C)[C@@H]1CCC(C)=C[C@@H]21", "note": "[THC, Δ-9-tetrahydrocannabinol, reference compound]", "values": [
      {"measurement": "mean plasma concentrations over time in renally impaired participants versus normal", "setting": "[1]", "value": "elevated"},
      {"measurement": "Cmax, Geometric LS Mean Ratio (Severe RI/Normal), Estimate", "setting": "[1]", "value": 0.8},
      {"measurement": "AUClast, Geometric LS Mean Ratio (Severe RI/Normal), Estimate", "setting": "[1]", "value": 1.34},
      {"measurement": "elimination in patients with renal impairment", "setting": "[1]", "value": "relatively unchanged"},
      {"measurement": "AUC0-tlast Fold Change from Normal", "setting": "[1]", "value": 1.34, "unit": "fold"}
    ]},
    {"smiles": "C=C(C)[C@@H]1CCC(C)=C[C@H]1c1c(O)cc(CCCCC)cc1O", "note": "[highly purified form of CBD]", "values": [
      {"measurement": "clinically relevant elevations of CBD, 7-OH-CBD and 7-COOH-CBD (mean AUClast ratios greater than 2 between the renally impaired and the control)", "setting": "[2]", "value": "not observed"}
    ]}
  ]
}
